From patent publication US11091514B2, “Peptide macrocycles and use thereof in the treatment of bacterial infections” (Hoffmann-La Roche Inc., priority 2017, dated 2021)

System: A. baumannii strain ATCC19606
Type: cell-based, Acinetobacter baumannii
Conditions: ATCC19606, 20 h
Protocol: The in vitro antimicrobial activity of the compounds was determined through microbroth minimum inhibitory concentration (MIC) methodology performed according to the Clinical and Laboratory Standard Institute guidelines (CLSI-M07-A9 January 2012. Methods for Dilution Antimicrobial Susceptibility Tests for Bacteria That Grow Aerobically; Approved Standard Ninth Edition, Clinical and Laboratory Standards Institute, Wayne/PA, US and the CLSI-M100-S24 January 2014. Performance Standards for Antimicrobial Susceptibility Testing; Approved Standard—Fourth Informational Supplement, Clinical and Laboratory Standards Institute, Wayne/PA, US).
The compound stock solution was freshly prepared at 10× the required top concentration for the MIC determination, i.e. at 1280 mg/L, by reconstitution of the dry compound in 50:50 water:DMSO.
Polystyrene non-treated 96 wells microtiter plates were used for preparing panel containing compound serial twofold diluted at two times the final testing concentration (e.g. range from 64 to 0.06 μg/ml) in cation adjusted Mueller Hinton broth medium (CAMHB).
Inoculum was prepared by the “direct colony suspension method”. Colonies of A. baumannii ATCC19606 or clinical isolates were suspended in saline solution and adjusted to 0.5 McFarland, diluted 100 times in CAMHB broth and 50 μl added to each well (final concentration of cells˜5×10^(5) CFU/ml and Final volume/well of 100 μl). Microtiter plates were sealed and incubated at 35±2° C.
MICs values were read after 20 hours of incubation and recorded as the lowest concentration of the antimicrobial that inhibits more or equal to 80% of growth of the organism as detected by the unaided eye and using a microtiter plate optical density reader (OD 600 nm).
Table 1 provides the minimum inhibitory concentration (MIC) in microgram per milliliter of the compounds of present invention obtained against the A. baumannii strain ATCC19606.

ATCC19606 MIC (minimum inhibitory concentration) [µg/mL]	SMILES
32	CN1C(=O)[C@H](CCCCN)NC(=O)[C@H](CCCN)NCc2cccc(c2)-c2ccccc2CNC(=O)[C@@H]1Cc1c[nH]c2ccccc12 [Example 1, (11S,14S,17S)-14-(4-Amino-butyl)-17-(3-amino-propyl)-11-(1H-indol-3-ylmethyl)-12-methyl-9,12,15,18-tetraaza-tricyclo[18.3.1.0*2,7]tetracosa-1(24),2(7),3,5,20,22-hexaene-10,13,16-trione]
2	CN1C(=O)[C@H](CCCCN)NC(=O)[C@H](CCCN)NCc2cccc(c2)-c2c(cccc2C(F)(F)F)CNC(=O)[C@@H]1Cc1c[nH]c2ccccc12 [Example 2, (11S,14S,17S)-14-(4-Amino-butyl)-17-(3-amino-propyl)-11-(1H-indol-3-ylmethyl)-12-methyl-3-trifluoromethyl-9,12,15,18-tetraaza-tricyclo[18.3.1.0*2,7]tetracosa-1(24),2(7),3,5,20,22-hexaene-10,13,16-trione]
0.5	CN1C(=O)[C@H](CCCCN)NC(=O)[C@H](CCCN)NCc2cccc(c2)-c2ccc(C(F)(F)F)cc2CNC(=O)[C@@H]1Cc1c[nH]c2ccccc12 [Example 3, (11S,14S,17S)-14-(4-Amino-butyl)-17-(3-amino-propyl)-11-(1H-indol-3-ylmethyl)-12-methyl-5-trifluoromethyl-9,12,15,18-tetraaza-tricyclo[18.3.1.0*2,7]tetracosa-1(24),2(7),3,5,20,22-hexaene-10,13,16-trione]
32	Cc1cccc2c1-c1cccc(c1)CN[C@@H](CCCN)C(=O)N[C@@H](CCCCN)C(=O)N(C)[C@@H](Cc1c[nH]c3ccccc13)C(=O)NC2 [Example 4, (11S,14S,17S)-14-(4-Amino-butyl)-17-(3-amino-propyl)-11-(1H-indol-3-ylmethyl)-3,12-dimethyl-9,12,15,18-tetraaza-tricyclo[18.3.1.0*2,7]tetracosa-1(23),2(7),3,5,20(24),21-hexaene-10,13,16-trione]
4	CN1C(=O)[C@H](CCCCN)NC(=O)[C@H](CCCN)NCc2cccc(c2)-c2ccc(Cl)cc2CNC(=O)[C@@H]1Cc1c[nH]c2ccccc12 [Example 5, (11S,14S,17S)-14-(4-Amino-butyl)-17-(3-amino-propyl)-5-chloro-11-(1H-indol-3-ylmethyl)-12-methyl-9,12,15,18-tetraaza-tricyclo[18.3.1.0*2,7]tetracosa-1(23),2(7),3,5,20(24),21-hexaene-10,13,16-trione]
32	CN1C(=O)[C@H](CCCCN)NC(=O)[C@H](CCCN)NCc2cccc(c2)-c2cccc(Cl)c2CNC(=O)[C@@H]1Cc1c[nH]c2ccccc12 [Example 6, (11S,14S,17S)-14-(4-Amino-butyl)-17-(3-amino-propyl)-6-chloro-11-(1H-indol-3-ylmethyl)-12-methyl-9,12,15,18-tetraaza-tricyclo[18.3.1.0*2,7]tetracosa-1(23),2(7),3,5,20(24),21-hexaene-10,13,16-trione]
1	Cc1ccc2c(c1)CNC(=O)[C@H](Cc1c[nH]c3ccccc13)N(C)C(=O)[C@H](CCCCN)NC(=O)[C@H](CCCN)NCc1cccc-2c1 [Example 7, (11S,14S,17S)-14-(4-Amino-butyl)-17-(3-amino-propyl)-11-(1H-indol-3-ylmethyl)-5,12-dimethyl-9,12,15,18-tetraaza-tricyclo[18.3.1.0*2,7]tetracosa-1(23),2(7),3,5,20(24),21-hexaene-10,13,16-trione]
4	CN1C(=O)[C@H](CCCCN)NC(=O)[C@H](CCCN)NCc2cccc(c2)-c2cc(C(F)(F)F)ccc2CNC(=O)[C@@H]1Cc1c[nH]c2ccccc12 [Example 8, (11S,14S,17S)-14-(4-Amino-butyl)-17-(3-amino-propyl)-11-(1H-indol-3-ylmethyl)-12-methyl-4-trifluoromethyl-9,12,15,18-tetraaza-tricyclo[18.3.1.0*2,7]tetracosa-1(24),2(7),3,5,20,22-hexaene-10,13,16-trione]
4	COc1ccc2c(c1)CNC(=O)[C@H](Cc1c[nH]c3ccccc13)N(C)C(=O)[C@H](CCCCN)NC(=O)[C@H](CCCN)NCc1cccc-2c1 [Example 9, (11S,14S,17S)-14-(4-Amino-butyl)-17-(3-amino-propyl)-11-(1H-indol-3-ylmethyl)-5-methoxy-12-methyl-9,12,15,18-tetraaza-tricyclo[18.3.1.0*2,7]tetracosa-1(23),2(7),3,5,20(24),21-hexaene-10,13,16-trione]
16	CN1C(=O)[C@H](CCCCN)NC(=O)[C@H](CCCN)NCc2cccc(c2F)-c2ccccc2CNC(=O)[C@@H]1Cc1c[nH]c2ccccc12 [Example 10, (11S,14S,17S)-14-(4-Amino-butyl)-17-(3-amino-propyl)-24-fluoro-11-(1H-indol-3-ylmethyl)-12-methyl-9,12,15,18-tetraaza-tricyclo[18.3.1.0*2,7]tetracosa-1(23),2(7),3,5,20(24),21-hexaene-10,13,16-trione]
32	CN1C(=O)[C@H](CCCCN)NC(=O)[C@H](CCCN)NCc2ccnc(c2)-c2ccc(Cl)cc2CNC(=O)[C@@H]1Cc1c[nH]c2ccccc12 [Example 11, (11S,14S,17S)-14-(4-Amino-butyl)-17-(3-amino-propyl)-5-chloro-11-(1H-indol-3-ylmethyl)-12-methyl-9,12,15,18,23-pentaaza-tricyclo[18.3.1.0*2,7]tetracosa-1(23),2(7),3,5,20(24),21-hexaene-10,13,16-trione]
